We go through 2 compounds from patent US20250295678A1, “ULTRA LOW DOSAGE ZOLEDRONIC ACID FOR TREATMENT OF RETINAL DISEASE” (The Regents of the University of California, priority 2022, published 2025).

Entries after “also recorded” stand apart in the source; their conditions may differ.

Test [1] relates to polarized primary RPE cultures. Kind of test: Complement-mediated mitochondrial fragmentation in polarized primary RPE monolayers (A2E + NHS, MitoTracker live imaging). The format is cell-based, porcine. As for the experimental part: Highly differentiated polarized primary RPE cultures were established from freshly harvested porcine eyes as described (Toops et al., 2014). To induce complement-mediate mitochondrial injury, RPE monolayers were treated with the lipofuscin bisretinoid A2E, which compromises mechanisms that protect the RPE from complement activation (Tan et al., 2016). RPE cells were exposed to active complement components (10% normal human serum, NHS, for 10 min at 37° C.) to induce complement activation on the RPE cell surface. […] After NHS exposure, cells were treated with 1 μM zoledronic acid for 3 h. RPE mitochondria were labeled with MitoTracker Deep Red and cells were imaged live on a Nikon spinning disc confocal microscopy as we have described (Tan et al., 2016; La Cunza et al., 2021). Mitochondrial surfaces were reconstructed from 4-dimensional images using Imaris (Bitplane).
Highly differentiated polarized primary RPE cultures were established from freshly harvested porcine eyes as described (Toops et al., 2014). To induce complement-mediate mitochondrial injury, RPE monolayers were treated with the lipofuscin bisretinoid A2E, which compromises mechanisms that protect the RPE from complement activation (Tan et al., 2016). RPE cells were exposed to active complement components (10% normal human serum, NHS, for 10 min at 37° C.) to induce complement activation on the RPE cell surface. […]

In test [2] the test system is primary RPE cultures. Kind of test: Ceramide in primary RPE cultures treated with adiporon. Type of test: cell-based, porcine. As to conditions: 0.01-1 μM, 3 h.
Test [3] deals with T1, acid sphingomyelinase (ASM) (Homo sapiens, UniProt P17405).
T1 sequence (P17405 47-631): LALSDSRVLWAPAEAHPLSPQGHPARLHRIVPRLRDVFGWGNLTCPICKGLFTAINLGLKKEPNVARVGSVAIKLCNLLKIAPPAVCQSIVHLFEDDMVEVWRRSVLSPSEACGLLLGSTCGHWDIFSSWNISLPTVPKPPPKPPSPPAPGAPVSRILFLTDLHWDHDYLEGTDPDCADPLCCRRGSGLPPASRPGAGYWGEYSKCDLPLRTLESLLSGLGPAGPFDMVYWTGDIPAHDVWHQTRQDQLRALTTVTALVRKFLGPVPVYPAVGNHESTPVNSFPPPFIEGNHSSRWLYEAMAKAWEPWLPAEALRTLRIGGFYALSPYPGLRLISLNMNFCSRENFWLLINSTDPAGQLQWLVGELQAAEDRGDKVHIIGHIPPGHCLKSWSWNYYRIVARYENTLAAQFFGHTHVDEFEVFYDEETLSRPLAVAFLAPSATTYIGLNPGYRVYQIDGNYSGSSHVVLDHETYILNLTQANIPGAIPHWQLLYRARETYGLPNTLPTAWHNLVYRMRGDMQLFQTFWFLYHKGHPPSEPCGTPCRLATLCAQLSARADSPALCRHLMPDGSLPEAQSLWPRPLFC
As to conditions: functional ASM inhibitor, prior publication; cited from earlier work.

`O=C(COc1ccc(C(=O)c2ccccc2)cc1)NC1CCN(Cc2ccccc2)CC1` [adiporon]: in test [1] (1 μM for 3 h after NHS exposure (FIG. 5, FIG. 9)), the “complement-mediated mitochondrial fragmentation in the RPE in vitro” value was “prevented complement-mediated mitochondrial fragmentation”. The “complement-induced mitochondrial injury in primary RPE cultures” value in test [1] (0.01-1 μM, 3 h (0.01 μM data not shown)) was “preventing complement-induced mitochondrial injury”. The “ceramide in primary RPE cultures” value in test [2] is listed as “effective in decreasing ceramide”.

With `CNCCCN1c2ccccc2CCc2ccccc21` [desipramine], the “ceramide accumulation (prior work)” value in test [3] was “decreases ceramide alone; also recorded: can effectively inhibit ceramide accumulation”.
